Patent publication US9169260B2 (MERCK SHARP & DOHME CORP., priority 2011, dated 2015)

Molecular target: GST tagged IRAK-4 (Homo sapiens (Human), UniProt Q9NWZ3)
Assay: IRAK-4 Kinase Assay (IMAP fluorescence polarization)
Format: biochemical
Conditions: 100 μM ATP, 30 minutes at 25° C.
How it was run: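 Activity was read by IMAP fluorescence polarization, where phosphopeptide binding to M(III) nanoparticles raises FP. The 30-minute, 25° C reaction used 100 μM ATP, 100 nM RP7030 substrate and 0.5 nM GST-IRAK-4 in pH 7.2 Tris buffer with MgCl2, DTT and Tween 20.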

GST tagged IRAK-4, sequence (Q9NWZ3 whole entry): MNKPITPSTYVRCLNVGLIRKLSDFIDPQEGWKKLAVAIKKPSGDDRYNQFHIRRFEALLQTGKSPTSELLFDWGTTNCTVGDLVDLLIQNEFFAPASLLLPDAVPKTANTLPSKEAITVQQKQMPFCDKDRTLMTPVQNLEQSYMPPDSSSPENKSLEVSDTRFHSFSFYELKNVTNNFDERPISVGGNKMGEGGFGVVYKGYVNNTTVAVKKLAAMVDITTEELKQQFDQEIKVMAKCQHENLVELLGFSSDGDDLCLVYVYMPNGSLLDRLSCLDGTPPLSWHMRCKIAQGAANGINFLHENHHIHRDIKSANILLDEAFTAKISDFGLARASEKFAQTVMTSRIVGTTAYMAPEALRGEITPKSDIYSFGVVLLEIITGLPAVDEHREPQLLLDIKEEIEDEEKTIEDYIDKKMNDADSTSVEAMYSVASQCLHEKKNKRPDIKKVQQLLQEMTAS

Row | SMILES | IC50 (μM) [µM] | IC50 [µM]
1 | O=C(Nc1cc(C2CCN(CC(F)(F)F)CC2)nn1-c1ccc(C2CC2)cc1F)c1cnn2cccnc12 [Example 76, N-(1-(4-cyclopropyl-2-fluorophenyl)-3-(1-(2,2,2-trifluoroethyl)piperidin-4-yl)-1H-pyrazol-5-yl)pyrazolo[1,5-a]pyrimidine-3-carboxamide] | < 1 | –
2 | C[C@H](N)c1ccc(-n2nc(C3CCN(S(C)(=O)=O)CC3)cc2NC(=O)c2cnn3cccnc23)nc1 [Example 164, (S)—N-(1-(5-(1-aminoethyl)pyridin-2-yl)-3-(1-(methylsulfonyl)piperidin-4-yl)-1H-pyrazol-5-yl)pyrazolo[1,5-a]pyrimidine-3-carboxamide] | – | < 0.1
3 | Cc1ccc(-n2nc(C3CCN(C4CN(C(=O)OC(C)(C)C)C4)CC3)cc2NC(=O)c2cnn3cccnc23)cc1 [Example 261, tert-butyl 3-(4-{1-(4-methylphenyl)-5-[(pyrazolo[1,5-a]pyrimidin-3-ylcarbonyl)amino]-1H-pyrazol-3-yl}piperidin-1-yl)azetidine-1-carboxylate] | < 1 | –
4 | Cc1ccc(-n2nc(C3CCN(C4CCC5CC54)CC3)cc2NC(=O)c2cnn3cccnc23)cc1 (stereo not shown) [Example 254, N-[3-(1-bicyclo[3.1.0]hex-2-ylpiperidin-4-yl)-1-(4-methylphenyl)-1H-pyrazol-5-yl]pyrazolo[1,5-a]pyrimidine-3-carboxamide] | – | < 0.1
5 | Cc1ccc(-n2nc(C3CCN(CC(N)=O)CC3)cc2NC(=O)c2cnn3cc(Br)cnc23)cc1 [Example 115, N-(3-(1-(2-amino-2-oxoethyl)piperidin-4-yl)-1-(p-tolyl)-1H-pyrazol-5-yl)-6-bromopyrazolo[1,5-a]pyrimidine-3-carboxamide] | – | < 0.1
6 | CN1CCN(c2cc(NC(=O)c3cnn4cccnc34)n(-c3ccc(C4CC4)cn3)n2)CC1 [Example 201, N-(1-(5-cyclopropylpyridin-2-yl)-3-(4-methylpiperazin-1-yl)-1H-pyrazol-5-yl)pyrazolo[1,5-a]pyrimidine-3-carboxamide] | – | < 0.1
7 | Cc1ccc(-n2nc(C3CCN(CC4CCOC4)CC3)cc2NC(=O)c2cnn3cccnc23)cc1 (stereo not shown) [Example 228, N-{1-(4-methylphenyl)-3-[1-(tetrahydrofuran-3-ylmethyl)piperidin-4-yl]-1H-pyrazol-5-yl}pyrazolo[1,5-a]pyrimidine-3-carboxamide] | – | < 0.1
8 | O=C(Nc1cc(C2CCN(C3CCC3)CC2)nn1-c1ccc(F)cc1F)c1cnn2cccnc12 [Example 49, N-(3-(1-cyclobutylpiperidin-4-yl)-1-(2,4-difluorophenyl)-1H-pyrazol-5-yl)pyrazolo[1,5-a]pyrimidine-3-carboxamide] | – | < 0.1
9 | Cc1ccc(-n2nc(C3CCN(C4CCC(F)(F)CC4)CC3)cc2NC(=O)c2cnn3cccnc23)cc1 [Example 259, N-{3-[1-(4,4-difluorocyclohexyl)piperidin-4-yl]-1-(4-methylphenyl)-1H-pyrazol-5-yl}pyrazolo[1,5-a]pyrimidine-3-carboxamide] | < 1 | –
10 | Cc1cccc(-n2nc(C3CCN(S(C)(=O)=O)CC3)cc2NC(=O)c2cnn3cccnc23)c1 [Example 17, N-(3-(1-(methylsulfonyl)piperidin-4-yl)-1-(m-tolyl)-1H-pyrazol-5-yl)pyrazolo[1,5-a]pyrimidine-3-carboxamide] | < 1 | –
11 | [2H]C([2H])([2H])c1ccc(-n2nc(C3CCN(S(C)(=O)=O)CC3)cc2NC(=O)c2cnn3cccnc23)nc1 [Example 155, N-(1-(5-trideuteromethylpyridin-2-yl)-3-(1-(methylsulfonyl)piperidin-4-yl)-1H-pyrazol-5-yl)pyrazolo[1,5-a]pyrimidine-3-carboxamide] | – | < 0.1
12 | Cc1ccc(-n2nc(N3CCN(C4CCCCCC4)CC3)cc2NC(=O)c2cnn3cccnc23)nc1 [Example 322, N-[3-(4-cycloheptylpiperazin-1-yl)-1-(5-methylpyridin-2-yl)-1H-pyrazol-5-yl]pyrazolo[1,5-a]pyrimidine-3-carboxamide] | – | < 0.1
13 | CN1CCC(c2cc(NC(=O)c3cnn4cccnc34)n(-c3ccc(C4CC4)cc3F)n2)CC1 [Example 398, N-(1-(4-cyclopropyl-2-fluorophenyl)-3-(1-methylpiperidin-4-yl)-1H-pyrazol-5-yl)pyrazolo[1,5-a]pyrimidine-3-carboxamide] | – | < 0.1
14 | COc1ccc(-n2nc(C3CCN(S(C)(=O)=O)CC3)cc2NC(=O)c2cnn3cccnc23)cc1 [Example 16, N-(1-(4-methoxyphenyl)-3-(1-(methylsulfonyl)piperidin-4-yl)-1H-pyrazol-5-yl)pyrazolo[1,5-a]pyrimidine-3-carboxamide] | – | < 0.1
15 | Cc1ccc(-n2nc(N3CCN(S(C)(=O)=O)CC3)cc2NC(=O)c2cnn3cccnc23)nc1 [Example 199, N-(1-(5-methylpyridin-2-yl)-3-(4-(methylsulfonyl)piperazin-1-yl)-1H-pyrazol-5-yl)pyrazolo[1,5-a]pyrimidine-3-carboxamide] | – | < 0.1
16 | CNS(=O)(=O)c1ccc(-c2cc(NC(=O)c3cnn4cc(Br)cnc34)n(-c3ccc(C)cn3)n2)cc1 [Example 194, 6-bromo-N-(1-(5-methylpyridin-2-yl)-3-(4-(N-methylsulfamoyl)phenyl)-1H-pyrazol-5-yl)pyrazolo[1,5-a]pyrimidine-3-carboxamide] | – | < 0.1
17 | Cc1ccc(-n2nc(C3CCN(C4CCCC(C)C4)CC3)cc2NC(=O)c2cnn3cccnc23)nc1 (stereo not shown) [Example 277, N-{3-[1-(3-methylcyclohexyl)piperidin-4-yl]-1-(5-methylpyridin-2-yl)-1H-pyrazol-5-yl}pyrazolo[1,5-a]pyrimidine-3-carboxamide] | – | < 0.1
18 | Cc1ccc(-n2nc(C3CCN(S(=O)(=O)C4CCCCC4)CC3)cc2NC(=O)c2cnn3cccnc23)cc1 [Example 373, N-{3-[1-(cyclohexylsulfonyl)piperidin-4-yl]-1-(4-methylphenyl)-1H-pyrazol-5-yl}pyrazolo[1,5-a]pyrimidine-3-carboxamide] | < 1 | –
19 | Cc1ccccc1-n1nc(C2CCNCC2)cc1NC(=O)c1cnn2cccnc12 [Example 14, N-(3-(piperidin-4-yl)-1-(o-tolyl)-1H-pyrazol-5-yl)pyrazolo[1,5-a]pyrimidine-3-carboxamide] | > 1 | –

Further lines, results first:

Row | IC50 (μM) [µM] | IC50 [µM] | SMILES
20 | < 1 | – | Cc1ccc(-n2nc(C3CCN(S(=O)(=O)Cc4ccncc4)CC3)cc2NC(=O)c2cnn3cccnc23)cc1 [Example 358, N-[1-(4-methylphenyl)-3-{1-[(pyridin-4-ylmethyl)sulfonyl]piperidin-4-yl}-1H-pyrazol-5-yl]pyrazolo[1,5-a]pyrimidine-3-carboxamide]
21 | – | < 0.1 | Cc1ccc(-n2nc(C3CCN(C4CCC(N(C)S(C)(=O)=O)CC4)CC3)cc2NC(=O)c2cnn3cccnc23)cc1 (stereo not shown) [Example 251, N-[3-(1-{4-[methyl(methylsulfonyl)amino]cyclohexyl}piperidin-4-yl)-1-(4-methylphenyl)-1H-pyrazol-5-yl]pyrazolo[1,5-a]pyrimidine-3-carboxamide]
22 | – | < 0.1 | Cc1ccc(-n2nc(-c3ccc(S(N)(=O)=O)cc3)cc2NC(=O)c2cnn3cccnc23)cc1 [Example 99, N-(3-(4-sulfamoylphenyl)-1-(p-tolyl)-1H-pyrazol-5-yl)pyrazolo[1,5-a]pyrimidine-3-carboxamide]
23 | – | < 0.1 | Cc1ccc(-n2nc(-c3ccc(S(=O)(=O)N(C)C)cc3C)cc2NC(=O)c2cnn3cccnc23)cc1 [Example 345, N-{3-[4-(dimethylsulfamoyl)-2-methylphenyl]-1-(4-methylphenyl)-1H-pyrazol-5-yl}pyrazolo[1,5-a]pyrimidine-3-carboxamide]
24 | – | < 0.1 | CNC(=O)c1ccc(-c2cc(NC(=O)c3cnn4cccnc34)n(-c3ccc(C)cc3)n2)cc1 [Example 348, N-{3-[4-(methylcarbamoyl)phenyl]-1-(4-methylphenyl)-1H-pyrazol-5-yl}pyrazolo[1,5-a]pyrimidine-3-carboxamide]
25 | < 1 | – | Cc1ccc(-n2nc(C3CC3)cc2NC(=O)c2cnn3cccnc23)cc1 [Example 130, N-(3-cyclopropyl-1-(p-tolyl)-1H-pyrazol-5-yl)pyrazolo[1,5-a]pyrimidine-3-carboxamide]
26 | < 1 | – | Cc1ccc(-n2nc(C3CCN(S(=O)(=O)c4cnn(C)c4)CC3)cc2NC(=O)c2cnn3cccnc23)cc1 [Example 375, N-[1-(4-methylphenyl)-3-{1-[(1-methyl-1H-pyrazol-4-yl)sulfonyl]piperidin-4-yl}-1H-pyrazol-5-yl]pyrazolo[1,5-a]pyrimidine-3-carboxamide]
27 | – | < 0.1 | Cc1ccc(-n2nc(C3CCN(CC(C)C)CC3)cc2NC(=O)c2cnn3cccnc23)cc1 [Example 219, N-{1-(4-methylphenyl)-3-[1-(2-methylpropyl)piperidin-4-yl]-1H-pyrazol-5-yl}pyrazolo[1,5-a]pyrimidine-3-carboxamide]
28 | < 1 | – | Cc1ccc(-n2nc(C3CCN(S(=O)(=O)c4cccnc4Cl)CC3)cc2NC(=O)c2cnn3cccnc23)cc1 [Example 388, N-[3-{1-[(2-chloropyridin-3-yl)sulfonyl]piperidin-4-yl}-1-(4-methylphenyl)-1H-pyrazol-5-yl]pyrazolo[1,5-a]pyrimidine-3-carboxamide]
29 | – | < 0.1 | Cc1ccc(-n2nc(C3CCN(Cc4ccsc4)CC3)cc2NC(=O)c2cnn3cccnc23)cc1 [Example 223, N-{1-(4-methylphenyl)-3-[1-(thiophen-3-ylmethyl)piperidin-4-yl]-1H-pyrazol-5-yl}pyrazolo[1,5-a]pyrimidine-3-carboxamide]
30 | < 1 | – | Cc1ccc(-n2nc(C3CCN(S(=O)(=O)C4CC4)CC3)cc2NC(=O)c2cnn3cccnc23)cc1 [Example 26, N-(3-(1-(cyclopropylsulfonyl)piperidin-4-yl)-1-(p-tolyl)-1H-pyrazol-5-yl)pyrazolo[1,5-a]pyrimidine-3-carboxamide]
31 | – | < 0.1 | Cc1ccc(-n2nc(-c3ccncc3)cc2NC(=O)c2cnn3cccnc23)cc1 [Example 125, N-(3-(pyridin-4-yl)-1-(p-tolyl)-1H-pyrazol-5-yl)pyrazolo[1,5-a]pyrimidine-3-carboxamide]
